Assay results published in patent US10207988B2, “Methods and compositions for treatment of cancer and autoimmune disease” (THE JACKSON LABORATORY, priority 2011, dated 2019).

Key:
[1] = system: primary wild-type mouse splenocytes; test: radiosensitivity of primary splenocytes after exposure to DIDS (cell counts after 2.5 Gy); type: cell-based; details: Splenocyte, light or radiation study, 36 h, read-out: reduction in viability
Method: To validate DIDS as a potential agent, and to confirm its DSB repair inhibitory activity, radiosensitivity of primary wild-type mouse splenocytes was measured after exposure to DIDS. A total of 2×10^6 splenocytes were suspended in medium with 0, 300 μM, 600 μM or 1000 μM DIDS, or in vehicle-only control, and immediately given 2.5 Gy ionizing irradiation using a ^137Cs irradiator (Shepard). Cells were then cultured in medium containing the same DIDS concentration, and cell counts were determined after 36 hours recovery time.

[2] = system: primary chronic lymphocytic leukemia (CLL) cells; test: viable cell counts of primary human CLL cells treated with DIDS; type: cell-based; details: 150 μM or 600 μM DIDS, days 2, 4, 6, 8, relative to untreated control
Method: Blood samples (8-16 mL) from patients were collected via peripheral bleed into BD Vacutainer CPT tubes (BD, Franklin Lakes, N.J.), centrifuged to sequester red blood cells below the separation gel according to manufacturer instructions, and transported within 24 hours to the Jackson Laboratory. Upon receipt, peripheral blood mononuclear cells (PBMC) were isolated from samples according to manufacturer specifications. White blood cell (WBC) counts from 14 primary chronic lymphocytic leukemia (CLL) samples from human patients were calculated from complete blood count (CBC) with differentials. Calculated values were compared with empirical cell counts following cell separation and overnight shipping. […] The primary CLL samples (WBC) were diluted to standard concentration and 3.0×10^6 cells were seeded in cultures. Replicate cultures were supplemented with 0 μM (n=5), 150 μM DIDS (n=4), or 600 μM DIDS (n=2). Viable cell counts were determined by manual counting using a hemacytometer on days 2, 4, 6, and 8 of culture.

[3] = system: AID-expressing (AID+) primary human CLL cells; test: survival of primary human CLL cells cultured with DIDS (manual cytometry); type: cell-based
Method: AID-expressing (AID+) or AID-negative (AID−) primary human CLL cells were cultured as described in Example 4. […] […] The cell survival was scored by manual cytometry for viable cells after 2, 4, or 8 days of exposure.
Eight AID+ and eight AID− CLL samples were cultured in basic RPMI-1640 medium plus 30 micromolar DIDS, and survival was scored by manual cytometry for viable cells after 2, 4, 6, or 8 days. […] A total of 117 lymphoma or leukemia patients were studies, of which 106 were CLL patients. In 47% AID expression was determined by RT-PCR.

[4] = system: RAD51 foci in primary mouse B-cells; test: RAD51 focus formation after ionizing radiation (immunofluorescence); type: cell-based
Method: Primary mouse B-cells were isolated from spleen of wild type C57BL/6J mice by magnetic bead based sorting (Miltenyi) to purify B220+ IgM+ B-cells. B-cells were then […], exposed to 0 or 2.5 Gy ionizing radiation in a Cs137 irradiator, and then stained by immunofluorescence for foci of the homologous recombination factor RAD51. The fraction of cells in each culture showing formation of RAD51 foci within the nucleus is reported. Irradiated cells not cultured with DIDS (0 μM) show efficient focus formation. […] Error bars show the standard error of the mean (S.E.M) from three independent experiments.

[5] = system: phosphor-H2AX foci in AID+ and AID− primary human CLL cells; test: phospho-H2AX foci in primary human CLL cells treated with DIDS; type: cell-based; details: 30 μM DIDS, 2 days in culture, AID+ versus AID− samples
Source text: Primary human CLL patient derived cells were obtained from peripheral bleeds collected at the time of routine clinical monitoring. Primary peripheral blood samples were collected via routine venipuncture into BD Vacutainer CPT Cell Separation Tubes (Becton Dickinson). Samples were centrifuged to separate red blood cells (RBC) and then inverted to resuspend the monocuclear cells in their own plasma. Samples were stored overnight at the site of collection at room temperature then shipped via courier to the site of analysis. Each sample was tested for AID expression status by reverse transcription PCR (RT-PCR) to detect presence of the human AID mRNA (see Example 11). Samples were then divided into AID+ (those showing detectable levels of AID mRNA) and AID− (those showing no detectable AID mRNA above background) groups. Multiple independent cultures from different AID+ and AID− samples were initiated in standard RPMI-1640 medium containing 10% FBS plus either 0 or 30 μM DIDS. After 2 days in culture, cells from each culture/condition were fixed using paraformaldehyde, mounted on microscope coverslips, permeabilized by washing with weak detergent, and were processed for immunofluorescent detection of the DNA double strand break marker phosphor-H2AX (primary antibody: cat. No. A300-081A, Bethyl Laboratories; 1:400 dilution). […]

Rad51 = biological target: T1, Rad51 (Homo sapiens, UniProt Q06609); details: cited from earlier work
T1 sequence (Q06609 1-339): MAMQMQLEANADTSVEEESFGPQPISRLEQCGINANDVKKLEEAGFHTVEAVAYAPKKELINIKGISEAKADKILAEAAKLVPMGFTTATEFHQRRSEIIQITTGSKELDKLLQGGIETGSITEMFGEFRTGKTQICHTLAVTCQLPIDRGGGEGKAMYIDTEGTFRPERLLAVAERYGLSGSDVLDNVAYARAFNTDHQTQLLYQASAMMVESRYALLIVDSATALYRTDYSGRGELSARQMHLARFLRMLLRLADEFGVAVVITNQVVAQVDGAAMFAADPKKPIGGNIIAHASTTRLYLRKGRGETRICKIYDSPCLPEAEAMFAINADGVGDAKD

## O=S(=O)([O-])c1cc(N=C=S)ccc1/C=C/c1ccc(N=C=S)cc1S(=O)(=O)[O-].[Na+].[Na+] [DIDS, 4,4′diisothiocyanostilbene-2,2′-disulfonic acid]
[1]
  cytotoxicity at 600 µM: ~25%
  cytotoxicity at 1000 µM: 87%
[2]
  viable cell counts: significant decline in viable cell counts
[3]; 10 μM DIDS
  cell viability: significant effects on cell viability
[3]; 30 micromolar DIDS, 2, 4 or 8 days
  cell survival (viable cells): reduced cell viability
[3]; 30 micromolar DIDS, eight AID+ and eight AID− CLL samples, 2, 4, 6 or 8 days
  cell viability, AID-positive versus AID-negative: more strongly reduces cell viability in AID-positive than in AID-negative primary human CLL cells
[4]; 150 μM DIDS, 2.5 Gy ionizing radiation
  fraction of cells with RAD51 foci: completely inhibits radiation-induced RAD51 focus formation
[4]; 150 µM DIDS, irradiated cells (legend of FIG. 22)
  fraction of cells with RAD51 foci: completely inhibits radiation-induced RAD51 focus formation
[5]
  phosphor-H2AX foci per cell (DNA double strand break marker): inhibits repair of AID-mediated genomic DNA double strand breaks (DSBs)
Rad51
  effect on Rad51 complexes and heteroduplex formation: disrupts Rad51 complexes and inhibits heteroduplex formation
